The values that follow come from patent publication US5137905A, “Heterocyclic acetylenic amines having central nervous system activity” (The Upjohn Company, priority 1991, dated 1992).

Each structure is given as a SMILES string. Like-named read-outs stand apart in the source and are kept apart here. Where only a bound is given, the exact number is not on record here.

Assay [1] has as its target CNS cholinergic receptor. The conditions noted are these: read-out: CNS Cholinergic Receptor Binding Assays K1 QNB.
Assay [2] addresses CNS cholinergic receptor. The assay is described as follows: CNS cholinergic receptor binding, oxotremorine M ligand. The conditions noted are these: tritiated oxotremorine M; read-out: CNS Cholinergic Receptor Binding Assays K1 Oxotremorine.
The subject of assay [3] is oxotremorine-induced body tremor. The assay is described as follows: Oxotremorine antagonist assay (body tremor). It counts as in vivo, mice. The method, then:
Oxotremorine antagonist assays were performed on groups of six mice weighing 18-22 g. Each was dosed intraperitoneally with the test compound prepared in 0.25% methylcellulose and were placed in individual cages. Twenty minutes later the mice were injected subcutaneously with 0.5 mg/kg of oxotremorine dissolved in saline. Ten minutes later the mice were scored for body tremor. Doses of the compound under study began at 100 mg/kg and were decreased at a 0.5 log interval until no responders were obtained.

The subject of another assay is HCl-induced writhing. The assay can be described thus: HCl writhing protection (analgesic activity). It counts as in vivo, CF1 mice. Particulars: Mus musculus, sc, read-out: CNS Id (ED50 mg/kg) HCl Writh. Protect. Here is the method: For determination of analgesic activity, the test compound was injected subcutaneously into a group of four CF1 mice. Thirty minutes later the mice were injected i.p. with 0.15% HCl, 10 ml./kg. Mice were then placed in plastic boxes and observed for fifteen minutes to record the number of animals failing to writhe.

Setting [4] is: tritiated quinuclidine benzylate (QNB).
Where [5] appears, read: Mus musculus, ip; read-out: Oxot. Antagonist Tremor (ED50).
Setting [6] is: ED50, s.c. in CF1 mice, 30 min before i.p. 0.15% HCl.
Setting [7] is: Mus musculus, ip, read-out: Oxot. Antagonist Tremor (ED50).

For the compound `O=C1NCCN1CC#CCn1ccnc1` [Compound 25, 1-[4-(1H-Imidazol-1-yl)-2-butynyl]-2-imidazolidinone], the Ki on CNS cholinergic receptor [1] (setting [4]) is more than 10000 nM; on CNS cholinergic receptor [2], 62 nM. In addition, the ED50 in assay [3] (setting [5]) is more than 100 mg/kg.

Take `CC1(C)CN(CC#CCN2CCCC2)C(=O)N1` [Compound 12, 4,4-Dimethyl-1-[4-(1-pyrrolidinyl)-2-butynyl]-2-imidazolidinone]: the ED50 was more than 50 mg/kg with HCl-induced writhing (setting [6]) and more than 100 mg/kg in assay [3] (setting [5]). Moreover, on CNS cholinergic receptor [2], the Ki was 820 nM.

With `CCN(CC)CC#CC(C)N1CCN(C)C1=O` (centres unmarked) [Compound 34, 1-[4-(Diethylamino)-1-methyl-2-butynyl]-3-methyl-2-imidazolidinone], the Ki on CNS cholinergic receptor [1] (setting [4]) was determined as 1980 nM; at CNS cholinergic receptor [2], 165 nM. For the same compound, the ED50 in assay [3] (setting [5]) is more than 100 mg/kg.

For `CN(C)CC#C[C@H]1CCCN1` [Compound 50C, (R)-N,N-dimethyl-3-(2-pyrrolidinyl)-2-propyn-1-amine], the values for the ED50 (in the assay on HCl-induced writhing; in assay [3] (setting [5])) were more than 50 mg/kg and more than 100 mg/kg, respectively. In addition, the Ki on CNS cholinergic receptor [1] (setting [4]) was more than 1000 nM; at CNS cholinergic receptor [2], 970 nM.

With `CC(C#CCN1CCCC1)n1ccn(C)c1=O` (centres unmarked) [Compound 39, 1,3-Dihydro-1-methyl-3-[1-methyl-4-(1-pyrrolidinyl)-2-butynyl]-2H-imidazol-2-one], the Ki on CNS cholinergic receptor [1] (setting [4]) turned out to be 88 nM; on CNS cholinergic receptor [2] it was 9 nM. For the same compound, in assay [3] (setting [5]), the ED50 was more than 30 mg/kg.

On to `NC(=O)N1CCC[C@@H]1C#CCN1CCCC1` [Compound 51H, (R)-2-[3-(1-pyrrolidinyl)-1-propynyl]-1-pyrrolidinecarboxamide], for which the ED50 in the assay with HCl-induced writhing (setting [6]) is more than 50 mg/kg; in assay [3] (setting [5]) it was more than 100 mg/kg. The Ki is more than 10000 nM at CNS cholinergic receptor [1] (setting [4]) and 440 nM at CNS cholinergic receptor [2].

Take `CC(C#CCN(C)C)N1CCN(C)C1=O` (centres unmarked) [Compound 32, 1-[4-(Dimethylamino)-1-methyl-2-butynyl]-3-methyl-2-imidazolidinone]: the results for the Ki on CNS cholinergic receptor [1] (setting [4]) and on CNS cholinergic receptor [2] were more than 10000 nM and 33 nM, respectively. For the same compound, the ED50 in assay [3] (setting [5]) was more than 100 mg/kg.

With `CCN1CCN(CC#CCN2CCCC2)C1=O` [Compound 30, 1-Ethyl-3-[4-(1-pyrrolidinyl)-2-butynyl]-2-imidazolidinone], the Ki is more than 10000 nM at CNS cholinergic receptor [1] (setting [4]) and 697 nM at CNS cholinergic receptor [2]. For the same compound, in assay [3] (setting [5]), the ED50 is more than 30 mg/kg.

Turning to `CC1(C)CNC(=O)N1CC#CCN1CCCC1` [Compound 16, 5,5-Dimethyl-1-[4-(1-pyrrolidinyl)-2-butynyl]-2-imidazolidinone], the ED50 in the assay with HCl-induced writhing (setting [6]) was 25 mg/kg; in assay [3] (setting [5]), more than 100 mg/kg. Besides, the Ki is 1000 nM on CNS cholinergic receptor [1] (setting [4]) and 290 nM at CNS cholinergic receptor [2].

For the compound `Cn1ccn(CC#CCn2ccnc2)c1=O` [Compound 6, 1,3-Dihydro-1-[4-(1H-imidazol-1-yl)-2-butynyl]-3-methyl-2H-imidazol-2-one], the Ki on CNS cholinergic receptor [1] (setting [4]) was more than 10000 nM; at CNS cholinergic receptor [2], 35 nM. Further, the ED50 in assay [3] (setting [5]) was more than 100 mg/kg.

Turning to `CN1CC(=O)N(CC#CCN2CCCC2)C1=O` [Compound 44, 1-Methyl-3-[4-(1-pyrrolidinyl)-2-butynyl]-2,4-imidazolidinedione], the Ki on CNS cholinergic receptor [1] (setting [4]) is 8710 nM; on CNS cholinergic receptor [2], 20 nM. The ED50 in assay [3] (setting [5]) was more than 30 mg/kg.

For `C(#C[C@@H]1CCCN1)CN1CCCC1` [Compound 50B, (S)-1-[3-(2-pyrrolidinyl)-2-propynyl]pyrrolidine], the Ki on CNS cholinergic receptor [1] (setting [4]) was more than 10000 nM; at CNS cholinergic receptor [2] it was 1300 nM.

As for `Cc1cncn1CC#CCn1ccn(C)c1=O` [Compound 7, 1,3-Dihydro-1-methyl-3-[4-(5-methyl-1H-imidazol-1-yl)-2-butynyl]-2H-imidazol-2-one], the values for the Ki on CNS cholinergic receptor [1] (setting [4]) and at CNS cholinergic receptor [2] were 614 nM and 39 nM, respectively. In assay [3] (setting [5]), the ED50 is more than 100 mg/kg.

Consider `C(#C[C@H]1CCCN1)CN1CCCC1` [Compound 50A, (R)-1-[3-(2-pyrrolidinyl)-2-propynyl]pyrrolidine], for which the Ki was 4800 nM on CNS cholinergic receptor [1] (setting [4]) and 260 nM on CNS cholinergic receptor [2]. The ED50 in assay [3] (setting [5]) is more than 100 mg/kg.

Take `CN1C(=O)CN(CC#CCN2CCCC2)C1=O` [Compound 43, 3-Methyl-1-[4-(1-pyrrolidinyl)-2-butynyl]-2,4-imidazolidinedione]: the figures for the Ki on CNS cholinergic receptor [1] (setting [4]) and at CNS cholinergic receptor [2] were more than 10000 nM and 364 nM, respectively. For the same compound, in assay [3] (setting [5]), the ED50 is more than 100 mg/kg.

On to `CCN(CC)CC#CCN1CCNC1=O` [Compound 23, 1-[4-(Diethylamino)-2-butynyl]-2-imidazolidinone], for which the Ki on CNS cholinergic receptor [1] (setting [4]) is more than 10000 nM; at CNS cholinergic receptor [2] it was 425 nM. For the same compound, the ED50 in assay [3] (setting [5]) was more than 100 mg/kg.

On to `CC(C#CCN1CCCC1)N1CCNC1=O` (centres unmarked) [Compound 31, 1-[1-Methyl-4-(1-pyrrolidinyl)-2-butynyl]-2-imidazolidinone], for which the Ki is 135 nM on CNS cholinergic receptor [1] (setting [4]) and 15 nM at CNS cholinergic receptor [2]. Besides, in assay [3] (setting [5]), the ED50 is more than 30 mg/kg.

As to `CN1CCCN(CC#CCN2CCCC2)C1=O` [Compound 42, Tetrahydro-1-methyl-3-[4-(1-pyrrolidinyl)-2-butynyl]-2(1H)-pyrimidinone], the Ki on CNS cholinergic receptor [1] (setting [4]) came to 1580 nM; on CNS cholinergic receptor [2], 229 nM. The ED50 in assay [3] (setting [5]) is more than 30 mg/kg.

On to `CCN(CC)CC#CCN1CCN(C)C1=O` [Compound 24, 1-[4-(Diethylamino)-2-butynyl]-3-methyl-2-imidazolidinone], for which the Ki on CNS cholinergic receptor [1] (setting [4]) is more than 10000 nM; at CNS cholinergic receptor [2] it was 132 nM. In addition, the ED50 in assay [3] (setting [5]) was more than 100 mg/kg.

As to `Cc1cncn1CC#CCN1CCNC1=O` [Compound 27, 1-[4-(5-Methyl-1H-imidazol-1-yl)-2-butynyl]-2-imidazolidinone], the Ki is more than 10000 nM on CNS cholinergic receptor [1] (setting [4]) and 138 nM at CNS cholinergic receptor [2]. In addition, the ED50 in assay [3] (setting [5]) was more than 100 mg/kg.

Consider `CC(C#CCn1ccnc1)N1CCN(C)C1=O` (centres unmarked) [Compound 35, 3-[4-(1H-Imidazol-1-yl)-1-methyl-2-butynyl]-1-methyl-2-imidazolidinone], for which the Ki on CNS cholinergic receptor [1] (setting [4]) worked out at 4010 nM; on CNS cholinergic receptor [2], 120 nM. For the same compound, the ED50 in assay [3] (setting [5]) was more than 100 mg/kg.

On to `Cc1cncn1CC#CCN1CCN(C)C1=O` [Compound 29, 1-Methyl-3-[4-(5-methyl-1H-imidazol-1-yl)-2-butynyl]-2-imidazolidinone], for which the Ki at CNS cholinergic receptor [1] (setting [4]) came out at 381 nM; at CNS cholinergic receptor [2] it was 9 nM. For the same compound, in assay [3] (setting [5]), the ED50 is more than 100 mg/kg.

For the compound `CC(=O)N1CCC[C@@H]1C#CCN1CCCC1` [Compound 51A, (R)-1-Acetyl-2-[3-(1-pyrrolidinyl)-1-propynyl]pyrrolidine], the ED50 in the assay on HCl-induced writhing (setting [6]) was more than 50 mg/kg; in assay [3] (setting [5]) it was 3 mg/kg. The Ki at CNS cholinergic receptor [1] (setting [4]) is 120 nM.

As for `CC(C#CCN1CCCC1)N1CCN(C)C1=O` (centres unmarked) [Compound 22, 1-Methyl-3-[1-methyl-4-(1-pyrrolidinyl)-2-butynyl]-2-imidazolidinone], the ED50 in assay [3] (setting [7]) was found to be 37 mg/kg.

On to `CN(C)CC#CCn1ccn(C)c1=O` [Compound 37, 1,3-Dihydro-1-[4-(dimethylamino)-2-butynyl]-3-methyl-2H-imidazol-2-one], for which the figures for the Ki on CNS cholinergic receptor [1] (setting [4]) and at CNS cholinergic receptor [2] were more than 10000 nM and 37 nM, respectively. Besides, the ED50 in assay [3] (setting [5]) is more than 100 mg/kg.

For the compound `CN(C)CC#CCN1C(=O)CN(C)C1=O` [Compound 41, 3-[4-(Dimethylamino)-2-butynyl]-1-methyl-2,4-imidazolidinedione], the Ki at CNS cholinergic receptor [1] (setting [4]) was more than 10000 nM; at CNS cholinergic receptor [2], 86 nM.

As to `CCN(CC)CC#CCn1ccn(C)c1=O` [Compound 4, 1-[4-(Diethylamino)-2-butynyl]-1,3-dihydro-3-methyl-2H-imidazol-2-one], the Ki is more than 10000 nM on CNS cholinergic receptor [1] (setting [4]) and 563 nM at CNS cholinergic receptor [2]. Besides, the ED50 in assay [3] (setting [5]) was more than 100 mg/kg.

For the compound `CN1C(=O)N(CC#CCN2CCCC2)CC1(C)C` [Compound 13, 3,4,4-Trimethyl-1-[4-(1-pyrrolidinyl)-2-butynyl]-2-imidazolidinone], the ED50 in the assay with HCl-induced writhing (setting [6]) is 12.5 mg/kg; in assay [3] (setting [5]), more than 100 mg/kg. The Ki on CNS cholinergic receptor [2] is more than 10000 nM.

Take `CN1CCN(CC#CCn2ccnc2)C1=O` [Compound 28, 1-[4-(1H-Imidazol-1-yl)-2-butynyl]-3-methyl-2-imidazolidinone]: the Ki is 1870 nM at CNS cholinergic receptor [1] and 2 nM at CNS cholinergic receptor [2]. Besides, in assay [3] (setting [7]), the ED50 was more than 100 mg/kg.

With `O=c1[nH]ccn1CC#CCN1CCCC1` [Compound 38, 1,3-Dihydro-1-[4-(1-pyrrolidinyl)-2-butynyl]-2H-imidazol-2-one], the Ki is more than 10000 nM at CNS cholinergic receptor [1] (setting [4]) and 33 nM at CNS cholinergic receptor [2]. Also, the ED50 in assay [3] (setting [5]) is more than 2 mg/kg.

For `CC(=O)N1CCC[C@H]1C#CCN1CCCC1` [Compound 51B, (S)-1-Acetyl-2-[3-(1-pyrrolidinyl)-1-propynyl]pyrrolidine], the Ki on CNS cholinergic receptor [1] (setting [4]) amounted to 2300 nM; on CNS cholinergic receptor [2], 370 nM. Besides, the ED50 in assay [3] (setting [5]) was more than 30 mg/kg.

With `CN(C)CC#CCN1CCNC1=O` [Compound 33, 1-[4-(Dimethylamino)-2-butynyl]-2-imidazolidinone], the figures for the Ki on CNS cholinergic receptor [1] (setting [4]) and on CNS cholinergic receptor [2] were more than 10000 nM and 43 nM, respectively. The ED50 in assay [3] (setting [5]) was more than 100 mg/kg.

As to `CC(=O)N1CCN(CC#CCn2cncc2C)C1=O` [Compound 26, 1-Acetyl-3-[4-(5-methyl-1H-imidazol-1-yl)-2-butynyl]-2-imidazolidinone], the Ki is more than 10000 nM at CNS cholinergic receptor [1] (setting [4]) and 147 nM on CNS cholinergic receptor [2]. Besides, in assay [3] (setting [5]), the ED50 came to 45 mg/kg.

With `CC(C#CCN(C)C)n1ccn(C)c1=O` (centres unmarked) [Compound 40, 1,3-Dihydro-1-methyl-3-[4-(dimethylamino)-1-methyl-2-butynyl]-2H-imidazol-2-one], the results for the Ki on CNS cholinergic receptor [1] (setting [4]) and on CNS cholinergic receptor [2] were more than 10000 nM and 136 nM, respectively. The ED50 in assay [3] (setting [5]) was more than 100 mg/kg.
